Reference: ChEMBL document CHEMBL4145663, “Sweet Binders: Carbonic Anhydrase IX in Complex with Sucralose” (ACS Med Chem Lett, 2018)

How the values were obtained:
Carbonic anhydrase 2 = Carbonic anhydrase 2 (Homo sapiens, UniProt P00918); experiment: Binding affinity to carbonic anhydrase 2 (unknown origin)
Carbonic anhydrase 9 = Carbonic anhydrase 9 (Homo sapiens, UniProt Q16790); experiment: Binding affinity to carbonic anhydrase 9 (unknown origin) expressed in Escherichia coli BL21 (DE3)

SMILES	Ki (Carbonic anhydrase 2)	Ki (Carbonic anhydrase 9)
OC[C@H]1O[C@@](CO)(O[C@H]2O[C@H](CO)[C@@H](O)[C@H](O)[C@H]2O)[C@@H](O)[C@@H]1O [SUCROSE]	> 20000 nM	> 20000 nM
OC[C@H]1O[C@H](O[C@]2(CCl)O[C@H](CCl)[C@@H](O)[C@@H]2O)[C@H](O)[C@@H](O)[C@H]1Cl [SUCRALOSE]	300 nM	2200 nM
